The values that follow come from US9988343B2, “Inhibitors of histone deacetylase” (Dana-Farber Cancer Institute, Inc., priority 2013, dated 2018).

Like-named read-outs stand apart in the source and are kept apart here.

Series [1] relates to MM.1S cells co-cultured with BMSCs. The series can be described thus: 3[H]-thymidine incorporation, MM.1S co-cultured with BMSCs. Type of series: cell-based, human. The following applies: 7.5, 15, 30 μM, 48 hours (FIG. 6D). (In general: Incorporation of labelled thymidine or its analogues reports DNA synthesis.)
Experimental: To measure proliferation of MM cells, the rate of DNA synthesis was measured by ^3[H]-thymidine (Perkin-Elmer) uptake. […] Cell proliferation was measured by 3[H]-thymidine incorporation assay. Data represent mean±SD from quadruplicate cultures (FIG. 6D).
For series [2], the system named is primary tumor cells from MM patients. The series can be described thus: MTT growth assay in primary tumor cells from MM patients. Type of series: cell-based, human. The following applies: 30 μM, 72 hours, MTT (FIG. 6B). For orientation: Formazan colour is commonly taken as a measure of viable cells.
Experimental: BM specimens were obtained from patients with MM, and mononuclear cells (MNCs) were separated by Ficoll-Hipaque density sedimentation. Primary CD138+ plasma cells from MM patients were obtained using negative selection, as in previous studies. […] CD138-BMMNCs were used to establish long-term BMSC cultures, as previously described. […] Peripheral blood mononuclear cells were collected from healthy volunteers to obtain mononuclear cells (PBMCs). All procedures were performed with IRB-approved (Dana-Farber Cancer Institute) protocols and informed consent, and in accordance with the Declaration of Helsinki protocol. […] Cell growth was then assessed by MTT assay. Data represents mean±SD from triplicates cultures (FIG. 6B). […] Cell growth was assessed by MTT assay. The data represents mean±SD from triplicate cultures (FIG. 6C).
The test system of the next series is pSTAT3 (Tyr705). In words: Immunoblot of STAT3 phosphorylation in MM cells. Type of series: cell-based, human. The following applies: MM.1S, 10 and 20 μM, 10 hours, then IL-6 10 ng/mL 4 hours (FIG. 6G). The procedure:
MM cells were harvested and lysed using sodium dodecyl sulfate-polyacrylamide gel electrophoresis (SDS-PAGE) sample buffer containing 60 mM Tris-HCl, pH 6.8, 2% SDS, 10% glycerol, 0.005% bromophenol blue, 5 mM ethylenediaminetetraacetic acid, 5 mM NaF, 2 mM […], 1 mM phenylmethylsulfonyl fluoride (PMSF), 5 μg/mL leupeptin, and 5 μg/mL aprotinin; and then heated at 100° C. for 5 min. After the determination of protein concentration using DC protein assay (Bio-Rad, Hercules, Calif.), β-mercaptoethanol (β-ME) was added to the whole-cell lysates to a 2% final β-ME concentration. The whole-cell lysates were subjected to SDS-PAGE, transferred to nitrocellulose membranes (Bio-Rad, Hercules, Calif.) or polyvinylidene fluoride membranes (Millipore, Billerica, Mass.), and immunoblotted with anti-histone H3, -HDAC1, -HDAC2, -HDAC3, -Acetyl-histone H2A (Lysine 5) (Ac-H2AK5), -Acetyl-histone H2B (lysine 5) (Ac-H2 BK5), -Acetyl-histone H3 (lysine 9) (Ac-H3K9), -Acetyl-histone H4 (lysine 8) (Ac-H4K8), -glyceraldehyde-3-phosphate dehydrogenase (GAPDH), -poly (ADP-ribose) polymerase (PARP), -caspase-3, -caspase-8, -caspase-9, -Signal transducers and activators of transcription 3 (STAT3), -phospho-STAT3 (pSTAT3) (tyrosine 705), -pSTAT3 (serine 727), -p21, -Janus kinase 2 (JAK2), -acetylated-Lysine (Ac-K), and anti-phosphorylated-tyrosine antibodies (Abs; Cell Signaling Technology, Beverly, Mass.).
MM.1S, U266, and INA6 cells were cultured with DMSO control or LBH589 (50 and 100 nM) for 8 h.
MM.1S cells pretreated with or without 50 nM LBH589 for 8 hours were then treated with IL-6 (10 ng/mL) or BMSC culture supernatants (#1 and #2) for 15 minutes. Whole cell lysates were subjected to immunoblotting with anti-pSTAT3 (Tyr705) and STAT3 Abs.
In addition, INA-6 cells were cultured with DMSO control, LBH589 (50 nM), TSA (1 μM) or SAHA (2 μM) for 8 hours. Whole cell lysates were subjected to immunoblotting with anti-pSTAT3 (Tyr705), STAT3, and GAPDH Abs.
Whole cell lysates were subjected to immunoblotting with anti-pSTAT3 (Tyr705), -STAT3, -pERK1/2 (Thr202/204), and -ERK1/2 Abs (FIG. 6G).
See, e.g., Hideshima et al. Blood. 2006, 107:4053-4062. Since bortezomib upregulates activated STAT3 in head and neck squamous cell carcinoma (see, e.g., Li et al. Mol Cancer Ther 2009. 8:2211-2220), experiments were conducted to test whether bortezomib enhances p-STAT3 in MM cells. RPMI8226 cells were infected with Luc, HDAC1 (sh1), HDAC2 (sh1) or HDAC3 (sh1) shRNAs and then treated with or without bortezomib (5 nM) for 6 hours. Whole cell lysates were subjected to immunoblotting with anti-STAT3, -pSTAT3 (Tyr705), -pERK1/2 (Thr202/204) and -ERK1/2 Abs.

The target of another series is HDAC3 (Homo sapiens, UniProt O15379). In words: HDAC3 inhibitory activity (IC50). Type of series: biochemical.
In a further series the test system is RPMI8226 cells. In words: Combination with carfilzomib, MTT assay. It counts as cell-based, human. The following applies: RPMI8226, Compound 10 5, 10, 20 um + carfilzomib 3, 5, 7.5 nM, 24 h (FIG. 10). The procedure:
All experiments were performed 3 times in quadruplicate. Data represent mean+/−SD (FIG. 10). The y-axis (% control) indicates the relative number of viable cells after each treatment.

Another series has as its target HDAC2 (Homo sapiens, UniProt Q92769). The series can be described thus: HDAC2 inhibitory activity (IC50). Type of series: biochemical.

Sequence of HDAC2 (Q92769 whole entry): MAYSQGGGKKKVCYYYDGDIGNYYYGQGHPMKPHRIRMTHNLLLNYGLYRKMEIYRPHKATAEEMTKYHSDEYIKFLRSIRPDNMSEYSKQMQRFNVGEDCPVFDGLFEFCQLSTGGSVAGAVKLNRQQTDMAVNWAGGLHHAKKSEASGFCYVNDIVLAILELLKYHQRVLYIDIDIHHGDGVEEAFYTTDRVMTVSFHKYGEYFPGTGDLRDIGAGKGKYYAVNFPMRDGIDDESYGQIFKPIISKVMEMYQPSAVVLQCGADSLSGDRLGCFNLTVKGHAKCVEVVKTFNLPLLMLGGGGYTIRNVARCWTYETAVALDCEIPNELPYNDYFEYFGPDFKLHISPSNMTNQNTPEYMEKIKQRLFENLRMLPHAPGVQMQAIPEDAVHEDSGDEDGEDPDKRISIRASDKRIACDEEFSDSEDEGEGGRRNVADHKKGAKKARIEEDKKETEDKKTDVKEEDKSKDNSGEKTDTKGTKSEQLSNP
Sequence of HDAC3 (O15379 whole entry): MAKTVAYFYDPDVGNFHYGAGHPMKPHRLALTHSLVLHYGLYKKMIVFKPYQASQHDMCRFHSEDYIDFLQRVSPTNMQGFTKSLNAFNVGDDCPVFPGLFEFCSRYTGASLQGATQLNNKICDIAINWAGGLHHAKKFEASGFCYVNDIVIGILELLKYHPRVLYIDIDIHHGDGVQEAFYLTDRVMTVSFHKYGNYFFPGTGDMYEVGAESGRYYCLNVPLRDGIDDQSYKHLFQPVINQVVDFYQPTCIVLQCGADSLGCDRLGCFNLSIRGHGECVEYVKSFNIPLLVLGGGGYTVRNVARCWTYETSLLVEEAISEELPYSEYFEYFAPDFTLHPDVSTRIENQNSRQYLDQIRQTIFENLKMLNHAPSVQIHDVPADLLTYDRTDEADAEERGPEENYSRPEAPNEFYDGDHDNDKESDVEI
Sequence of HDAC3 (Q9Y618 395-489 partner limits assumed): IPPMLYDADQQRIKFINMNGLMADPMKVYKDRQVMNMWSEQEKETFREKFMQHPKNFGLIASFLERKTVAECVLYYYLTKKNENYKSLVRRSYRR
Experimental for HDAC2: (§1) HDAC inhibitor compounds designed and synthesized in accordance with the present invention were tested for their inhibitor activity against several different HDAC isoforms.
Experimental for HDAC3: as §1

Take `Nc1ccccc1NC(=O)c1cnccn1` [Compound 10, N-(2-aminophenyl)pyrazine-2-carboxamide]: the “MM cell proliferation in the presence of BMSCs” value in series [1] is given as “markedly inhibited MM cell growth even in the presence of BMSCs”. Besides, the “growth of patient-derived MM cells” value in series [2] was “potent growth inhibitory effect”. For the same molecule, the p-STAT3 entry with pSTAT3 (Tyr705) was “markedly downregulated p-STAT3”. For the same molecule, the IC50 at HDAC3 (Example 8, read-out: HDAC3 IC50) amounted to 289 nM; on HDAC3 (Table 2, read-out: HDAC3), 140 nM; at HDAC2 (Table 2, read-out: HDAC2), 1490 nM; at HDAC2 (Table 3, read-out: IC50 against the deacetylase activity of HDAC2), 2200 nM. Moreover, the “cytotoxicity induced by carfilzomib” value with RPMI8226 cells is “enhanced the cytotoxicity of carfilzomib”.
